Data on three molecules can be found in article PMC12069340 (Frontiers in Cellular and Infection Microbiology, 2025).

The structures appear in SMILES notation. Where a name gives a salt, the structure may show the parent alone.

The test system of this test is A/PuertoRico/8/1934 (H1N1 H274Y). It counts as cell-based, influenza A virus.
Regarding `O=C(c1ccc(OCCCc2cnc[nH]2)cc1)C1CC1` [Ciproxifan], it took 5.9 µM to reach half-maximal inhibition (IC50).
For `CC(COc1ccccc1)NC(C)C(O)c1ccc(O)cc1` (stereo not drawn) [Isoxsuprine, Isoxsuprine hydrochloride] the value was 9.3 µM; for `CCCN(CCc1cccs1)[C@H]1CCc2c(O)cccc2C1` [Rotigotine], 8.6 µM.

The term IC50 denotes the concentration at which inhibition is half-maximal. Higher therefore signals lower potency.
